Assay results: patent US10028992B2, “Methods of treating muscular dystrophy” (BOARD OF REGENTS OF THE NEVADA SYSTEM OF HIGHER EDUCATION …, priority 2012, dated 2018)

Test system: α7 integrin promoter
Assay: muscle cell-based assay: α7βgal+/− myoblasts/myotubes, LacZ reporter, β-galactosidase cleavage of FDG
Parameters: species or system mouse; Results in α7+/− β-galactosidase assay: scale not given here
Details: Myotubes; for Results in a α7+/− β-galactosidase assay, Myotubes, 0.5 uM: compound at 0.5 uM; for Results in a α7+/− β-galactosidase assay, Myotubes, 1 uM: compound at 1 uM; for Results in a α7+/− β-galactosidase assay, Myotubes, 5 uM: compound at 5 uM; for Results in a α7+/− β-galactosidase assay, Myotubes, 10 uM: compound at 10 uM; for Results in a α7+/− β-galactosidase assay, Myotubes, 20 uM: compound at 20 uM; for Results in a α7+/− β-galactosidase assay, Myotubes, 40 uM: compound at 40 uM
Method in brief: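 Fluorescein generated from FDG by β-galactosidase reports α7 integrin promoter activity in differentiated myoblasts from α7+/− LacZ knock-in pups. Screening hits then went to dose-response, western blotting and a myostatin counterscreen.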

SMILES	Results in a α7+/− β-galactosidase assay, Myotubes, 0.5 uM	Results in a α7+/− β-galactosidase assay, Myotubes, 1 uM	Results in a α7+/− β-galactosidase assay, Myotubes, 5 uM	Results in a α7+/− β-galactosidase assay, Myotubes, 10 uM	Results in a α7+/− β-galactosidase assay, Myotubes, 20 uM	Results in a α7+/− β-galactosidase assay, Myotubes, 40 uM	Results in α7+/− β-galactosidase assay (0.5 uM)	Results in α7+/− β-galactosidase assay (1 uM)	Results in α7+/− β-galactosidase assay (5 uM)	Results in α7+/− β-galactosidase assay (10 uM)	Results in α7+/− β-galactosidase assay (20 uM)	Results in α7+/− β-galactosidase assay (40 uM)
COc1c(Cl)cc(/C=C2\C(=O)Nc3ccccc32)cc1Cl [drawing 504]	−0.04389	−0.02066	−0.212	−0.2296	−0.06953	−0.1103						
COc1c(Cl)cc(/C=C2\C(=O)Nc3ccccc32)cc1Cl [drawing 505]	−0.1548	−0.1313	−0.4088	−0.5935	−0.3163	−0.3432						
CC(=O)Oc1c(Cl)cc(/C=C2\C(=O)Nc3ccccc32)cc1Cl [drawing 506]	−0.05659	−0.06941	−0.2138	−0.4615	−0.2526	−0.403						
CCN(CC)CCNC(=O)c1c(C)[nH]c(CC2C(=O)Nc3ccc(F)cc32)c1C (stereo not drawn) [drawing 507]	−0.07384	−0.08032	−0.9266	−1.896	−0.9097	−0.9224						
O=C1Nc2ccccc2/C1=C1\Nc2ccccc2C1=O [drawing 508]							−0.08969	−0.08698	−0.493	−0.5852	−0.318	−0.3129
Cc1[nH]c(/C=C2\C(=O)Nc3ccccc32)c(C)c1CCC(=O)O [drawing 509]							0.04928	0.07615	−0.501	−0.6162	−0.2542	−0.3688
Cc1cc(C)c(/C=C2\C(=O)Nc3ccccc32)[nH]1 [drawing 510]							−0.2205	−0.08303	−0.5223	−0.3378	−0.232	−0.06918
Cc1cc(C)c(/C=C2\C(=O)Nc3ccccc32)[nH]1 [drawing 512]							−0.1661	−0.09119	−0.3196	0.09661	−0.05031	0.151
Cc1cc(C)c(/C=C2\C(=O)Nc3ccccc32)[nH]1 [drawing 513]							−0.1009	−0.09355	0.09724	1.02	0.05028	0.1378
O=C1Nc2ccccc2/C1=C1/Nc2ccccc2/C1=N\O [drawing 514]							−0.111	−0.1122	−0.8688	−1.081	−0.5041	−0.6481
